{"source": "paper PMC1350429", "about": "(Purinergic Signalling, 2005)", "key": {"human P2Y1 receptor [1]": {"biological_target": "T1, human P2Y1 receptor (Homo sapiens, UniProt P47900)", "T1 sequence (P47900 whole entry)": "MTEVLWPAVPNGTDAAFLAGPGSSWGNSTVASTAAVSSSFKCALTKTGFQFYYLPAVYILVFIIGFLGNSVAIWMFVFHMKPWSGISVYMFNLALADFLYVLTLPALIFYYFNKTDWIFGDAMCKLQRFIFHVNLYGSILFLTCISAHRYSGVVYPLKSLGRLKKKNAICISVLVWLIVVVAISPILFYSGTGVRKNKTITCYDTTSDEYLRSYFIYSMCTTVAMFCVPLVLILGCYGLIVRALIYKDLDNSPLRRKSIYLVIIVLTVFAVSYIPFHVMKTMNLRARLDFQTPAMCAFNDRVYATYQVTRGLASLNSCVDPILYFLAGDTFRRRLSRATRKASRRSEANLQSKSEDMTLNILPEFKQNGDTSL", "assay_type": "cell-based", "details": "for Calcium response on addition of nucleotide: control experiments"}, "human P2Y1 receptor [2]": {"biological_target": "T1, human P2Y1 receptor", "test": "[3H]MRS2279 binding assay, membranes from astrocytoma cells"}, "human P2Y1 receptor [3]": {"biological_target": "T1, human P2Y1 receptor", "test": "Yeast liquid growth assay", "assay_type": "cell-based"}, "P2Y1 receptor": {"biological_target": "P2Y1 receptor", "details": "read-out: KB previously reported; cited from earlier work"}, "[4]": {"details": "read-out: Functional potency (EC50), Calcium (astrocytoma), 1321N1 astrocytoma cells, FlexStation, n = 3"}, "[5]": {"details": "read-out: Binding (Ki), Astrocytoma, competition for [3H]MRS2279 (8 nM) binding, 30 min, 4°C"}}, "note": "Where two headings read alike, the source gives them in different places."}
{"molecule": "2-hexylthioadenosine 5′-monophosphate [HT-AMP]", "values": [{"measurement": "EC50", "setting": "human P2Y1 receptor [1]; [4]", "value": "16 ± 11", "unit": "nM"}, {"measurement": "Ki", "setting": "human P2Y1 receptor [2]; [5]", "value": 1700, "unit": "nM"}]}
{"molecule": "Nc1ncnc2c1ncn2[C@@H]1O[C@H](COP(=O)(O)OP(=O)(O)OP(=O)(O)O)[C@@H](N)[C@H]1O", "note": "[3AM-ATP, 3′-amino-3′-deoxy-ATP]", "values": [{"measurement": "EC50", "setting": "human P2Y1 receptor [1]; [4]", "value": "3000 ± 1500", "unit": "nM"}]}
{"molecule": "Nc1ncnc2c1ncn2[C@@H]1O[C@H](COP(=O)(O)OP(=O)(O)O)[C@@H](O)[C@H]1O", "note": "[ADP, adenosine 5′-diphosphate]", "values": [{"measurement": "EC50", "setting": "human P2Y1 receptor [1]", "value": "58 ± 17", "unit": "nM"}, {"measurement": "EC50", "setting": "human P2Y1 receptor [3]", "value": "1.8 ± 0.65", "unit": "µM"}]}
{"molecule": "Nc1ncnc2c1ncn2[C@@H]1O[C@H](COP(=O)(O)OP(=O)(O)S)[C@@H](O)[C@H]1O", "note": "(stereo partly drawn) [ADP-β-S, adenosine 5′-O-(2-thio-diphosphate)]", "values": [{"measurement": "EC50", "setting": "human P2Y1 receptor [1]", "value": "86 ± 42", "unit": "nM"}, {"measurement": "Ki", "setting": "human P2Y1 receptor [2]", "value": 710, "unit": "nM"}, {"measurement": "EC50", "setting": "human P2Y1 receptor [3]", "value": 21, "unit": "µM"}]}
{"molecule": "CNc1ncnc2c1ncn2[C@H]1C[C@H](OP(=O)(O)O)[C@@H](COP(=O)(O)O)O1", "note": "[MRS2179, N^6-methyl-2′-deoxyadenosine-3′,5′-bisphosphate]", "values": [{"measurement": "Kb", "setting": "human P2Y1 receptor [1]; KB (Schild analysis), antagonism of ADP-induced calcium mobilization", "value": 164, "unit": "nM"}, {"measurement": "Kb", "setting": "P2Y1 receptor", "value": 177, "unit": "nM"}, {"measurement": "Effect on ADP concentration-response curve in yeast growth assay", "setting": "human P2Y1 receptor [3]; MRS2179 fixed at 10^-6, 10^-5, 10^-4 M, agonist ADP", "value": "right shift in the curves"}]}
{"molecule": "Nc1ccc(CCSc2nc(N)c3ncn([C@@H]4O[C@H](COP(=O)(O)OP(=O)(O)OP(=O)(O)O)[C@@H](O)[C@H]4O)c3n2)cc1", "note": "[PAPET-ATP, 2-[4-amino (2-phenylethyl)thio]-ATP]", "values": [{"measurement": "EC50", "setting": "human P2Y1 receptor [1]; [4]", "value": "28 ± 13", "unit": "nM"}, {"measurement": "Ki", "setting": "human P2Y1 receptor [2]; [5]", "value": 1100, "unit": "nM"}]}
{"molecule": "O=c1ccn([C@@H]2O[C@H](COP(=O)(O)OP(=O)(O)O)[C@@H](O)[C@H]2O)c(=O)[nH]1", "note": "[UDP, uridine 5’-diphosphate]", "values": [{"measurement": "Calcium response on addition of nucleotide", "setting": "human P2Y1 receptor [1]", "value": "did not induce any response"}, {"measurement": "Yeast growth in presence of nucleotide", "setting": "human P2Y1 receptor [3]; data not shown", "value": "Basal growth was low"}]}
{"molecule": "O=c1ccn([C@@H]2O[C@H](COP(=O)(O)OP(=O)(O)OP(=O)(O)O)[C@@H](O)[C@H]2O)c(=O)[nH]1", "note": "[UTP, uridine 5’-triphosphate]", "values": [{"measurement": "Calcium response on addition of nucleotide", "setting": "human P2Y1 receptor [1]", "value": "did not induce any response"}]}
